Several values for one entry are separate records, joined by “and”; a condition that tells them apart may be missing. Equal entries are not always repeated. After the bases stand the sugars from the 5' end (letter, count) and the backbone: PS all phosphorothioate, else s phosphorothioate and o phosphodiester by linkage. Methylation of C is not given here. e = 2'-O-(2-methoxyethyl) (MOE); k = constrained ethyl (cEt); d = 2'-deoxy (DNA)

In this data set the target is IRF4. The settings on record: ASO.

Turning to “GTAGTATGAGAAACGG (sugars kkkddddddddkekek, PS)”, the target mRNA inhibition (MM.1R, 1 µM) was 43%. For TGGATTGATGTGATAG (sugars k3 d10 k3, PS), where the note is “MM.1R, 1 µM”, the target mRNA inhibition turned out to be 48%. On to AGAGGCGACTGCTGAA (sugars k3 d10 k3, PS), for which the target mRNA inhibition (MM.1R, 1 µM) was -19%. Consider CCAAATGTGGAGCTCC (sugars k3 d10 k3, PS), for which the target mRNA inhibition (SK-MEL-28, 4 µM) was 23%.

In the case of ACAGCCGAAGCATTTT (sugars k3 d10 k3, PS), where the note is “MM.1R, 1 µM”, the target mRNA inhibition was 8%.

In the case of CACTTGTCTTGGGTGG (sugars k3 d10 k3, PS), the target mRNA inhibition (SK-MEL-28, 4 µM) amounted to 45%. For CTTGCCAGTGGTGGCC (sugars k3 d10 k3, PS), for the setting “SK-MEL-28, 4 µM”, the target mRNA inhibition turned out to be 16%. The same measure, in the same setting: the figure for CAAGTAATTTTAAGGC (sugars k3 d10 k3, PS) is 41%; for GGGTCCTCCGCCCGCT (sugars k3 d10 k3, PS) it is 28%; for GTAACAATACTGTAAG (sugars k3 d10 k3, PS) it is 55%. With TCATTAGAAAGCCCTC (sugars k3 d10 k3, PS), the target mRNA inhibition (MM.1R, 1 µM) was -19%. Take TTGCAAGAGAACAGCC (sugars k3 d10 k3, PS): for the setting “SK-MEL-28, 4 µM”, the target mRNA inhibition is 39%. In the case of TTTATGCGAAGAATTT (sugars k3 d10 k3, PS), for the setting “SK-MEL-28, 4 µM”, the target mRNA inhibition was 33%.

As to CCTAAGTACCTGAAAT (sugars k3 d10 k3, PS), the target mRNA inhibition (SK-MEL-28, 4 µM) is 11%. With ACGACTTAAGCTAAAC (sugars k3 d10 k3, PS), for the setting “SK-MEL-28, 4 µM”, the target mRNA inhibition came out at 58%. The same measure, in the same setting: the figure for TTATATACTGGTTGGT (sugars k3 d10 k3, PS) is 49%; for GATATCAAAGATCTCC (sugars k3 d10 k3, PS) it is 57%. On to CCGCTGAGAGCCGAGG (sugars k3 d10 k3, PS), for which the target mRNA inhibition (SK-MEL-28, 4 µM) was -4%. In the case of GCAAGATGACTCCATG (sugars k3 d10 k3, PS), the target mRNA inhibition (SK-MEL-28, 4 µM) was 63%. As for “TTGATGTGATAGCTGA (sugars kkdddddddddkekek, PS)”, the target mRNA inhibition (MM.1R, 1 µM) is 24%. On to CCGCACTCACTCGCAG (sugars k3 d10 k3, PS), for which the target mRNA inhibition (SK-MEL-28, 4 µM) turned out to be 8%.

Consider AAACGGCCTGGAGGTG (sugars k3 d10 k3, PS), for which the target mRNA inhibition (MM.1R, 1 µM) came to 11%. “TCAGTTTGTGAAGCAT (sugars kkkdddddddddkeke, PS)”: for the setting “MM.1R, 1 µM”, the target mRNA inhibition worked out at 53%. In the case of ATGGCAGTGGAGCTCC (sugars k3 d10 k3, PS), the target mRNA inhibition (SK-MEL-28, 4 µM) was determined as 56%. For the sequence AAAGAGTGGTACACCT (sugars k3 d10 k3, PS), the target mRNA inhibition (MM.1R, 1 µM) was found to be 10%. As for GTAACTCAGGCACCAC (sugars k3 d10 k3, PS), the target mRNA inhibition (SK-MEL-28, 4 µM) was 47%. For the sequence “GACACTTTTAGAGAGG (sugars kkkdddddddddkeke, PS)”, the target mRNA inhibition (MM.1R, 1 µM) is 24%. TAGAGAACATTACGAG (sugars k3 d10 k3, PS): the target mRNA inhibition (SK-MEL-28, 4 µM) amounted to 60%. Consider “ACACTTTTAGAGAGGA (sugars kddddddddddkekek, PS)”, for which the target mRNA inhibition (MM.1R, 1 µM) was -6%. For the sequence “ACACTTTTAGAGAGGA (sugars kdddddddddkekeke, PS)”, for the setting “MM.1R, 1 µM”, the target mRNA inhibition turned out to be 6%. TAGCATTCTTACAGCA (sugars k3 d10 k3, PS): the target mRNA inhibition reads like this: (MM.1R, 0.0625 µM) -4% and 15%; (MM.1R, 0.074 µM) 0%; (MM.1R, 0.222 µM) 34%; (MM.1R, 0.25 µM) -7% and -4%; (MM.1R, 0.666 µM) 27%; (MM.1R, 1 µM) 7% and 20%. Also, the target mRNA inhibition was 52% (MM.1R, 2 µM); 26% and 40% (MM.1R, 4 µM); 57% (SK-MEL-28, 4 µM). In the case of “AGCATTTTATCATCCG (sugars kddddddddddkekek, PS)”, the target mRNA inhibition (MM.1R, 1 µM) turned out to be 36%.

CTTTGAAGTGCTGTGT (sugars k3 d10 k3, PS): the target mRNA inhibition (SK-MEL-28, 4 µM) is 16%.

As to GAGGACCACGCCCCTC (sugars k3 d10 k3, PS), where the note is “SK-MEL-28, 4 µM”, the target mRNA inhibition was -3%. Same read-out and setting: the figure for CCTCACTACAGAGCCC (sugars k3 d10 k3, PS) is 24%. Take GTAAGATCTCCATGGT (sugars k3 d10 k3, PS): the target mRNA inhibition (MM.1R, 1 µM) is 17%.

For the sequence CTTTCCCATGGTTACT (sugars k3 d10 k3, PS), the target mRNA inhibition (MM.1R, 1 µM) was 8%. Regarding “AGCTTGATAAAGGCTG (sugars kkkdddddddddkeke, PS)”, the target mRNA inhibition (MM.1R, 1 µM) is -8%.

For GAATAGAGGAATGGCG (sugars k3 d10 k3, PS), the target mRNA inhibition (SK-MEL-28, 4 µM) was 39%. For the sequence CAGAGACGCGGTGAGA (sugars k3 d10 k3, PS), under “SK-MEL-28, 4 µM”, the target mRNA inhibition is -61%. On to “AGTGTCTAAAGTCCCA (sugars kkdddddddddkekek, PS)”, for which, for the setting “MM.1R, 1 µM”, the target mRNA inhibition is 26% and 9%. On to TGAACGGAAGTTTACA (sugars k3 d10 k3, PS), for which, where the note is “MM.1R, 1 µM”, the target mRNA inhibition stood at 14%. Regarding GAAGAGATCAGCTGCC (sugars k3 d10 k3, PS), under “SK-MEL-28, 4 µM”, the target mRNA inhibition was 42%.

GGCAAGCTGAATGCTC (sugars k3 d10 k3, PS): the target mRNA inhibition (SK-MEL-28, 4 µM) came out at 29%. As for TCTGGATTGCTGATGT (sugars k3 d10 k3, PS), the target mRNA inhibition (MM.1R, 1 µM) was found to be 36%. Regarding “ATGTTAGCCAATTCCT (sugars kdddddddddkekeke, PS)”, for the setting “MM.1R, 1 µM”, the target mRNA inhibition is 0% and 5%.

On to GGTAAAGGCACATTCC (sugars k3 d10 k3, PS), for which the target mRNA inhibition (SK-MEL-28, 4 µM) worked out at 47%. Regarding ACTAAGGACAGCTGTG (sugars k3 d10 k3, PS), where the note is “SK-MEL-28, 4 µM”, the target mRNA inhibition turned out to be 15%. As to CCTGTGGTGGAACTCT (sugars k3 d10 k3, PS), the target mRNA inhibition (SK-MEL-28, 4 µM) came out at 27%. With AGTGATGTCAGGTTTT (sugars k3 d10 k3, PS), the target mRNA inhibition (SK-MEL-28, 4 µM) came out at 72%.

On to GAGATAAGAAGCACTG (sugars k3 d10 k3, PS), for which the target mRNA inhibition (SK-MEL-28, 4 µM) was found to be 44%.

As for GAGCATCACTATTAAG (sugars k3 d10 k3, PS), the target mRNA inhibition (MM.1R, 1 µM) turned out to be 14%. In the case of ATTTAAGTCATGTGTC (sugars k3 d10 k3, PS), the target mRNA inhibition (MM.1R, 1 µM) stood at 17%. For the sequence “AAGCTTGATAAAGGCT (sugars kkdddddddddekeke, PS)”, the target mRNA inhibition (MM.1R, 1 µM) turned out to be 38%.

Regarding “GTAGTATGAGAAACGG (sugars kkdddddddddkekek, PS)”, the target mRNA inhibition (MM.1R, 1 µM) is 50%. With CATGAAATCCAAGGTA (sugars k3 d10 k3, PS), the target mRNA inhibition (SK-MEL-28, 4 µM) turned out to be 49%.

On to ACCTAATCTACAACAA (sugars k3 d10 k3, PS), for which the target mRNA inhibition (SK-MEL-28, 4 µM) amounted to 17%. Take AGGAATGAGGAAGCCG (sugars k3 d10 k3, PS): the target mRNA inhibition (SK-MEL-28, 4 µM) was found to be 56%. As for ACGCACCCGCAGCCCA (sugars k3 d10 k3, PS), the target mRNA inhibition (MM.1R, 1 µM) was -10%. In the case of “ACTGCTTGAGGTTTTC (sugars e1 k2 d9 k2 e2, PS)”, the target mRNA inhibition (MM.1R, 1 µM) came out at 46%.

With GCCGAAGTCAACAGGA (sugars k3 d10 k3, PS), the target mRNA inhibition (MM.1R, 1 µM) is -17%.

As for AGTTTACTAACTGGCT (sugars k3 d10 k3, PS), where the note is “SK-MEL-28, 4 µM”, the target mRNA inhibition was 63%. For the sequence “CTTGATAAAGGCTGAA (sugars kkdddddddddkekek, PS)”, the target mRNA inhibition (MM.1R, 1 µM) was determined as 12%. In the case of CAATATGCTTCCAACC (sugars k3 d10 k3, PS), for the setting “SK-MEL-28, 4 µM”, the target mRNA inhibition was -15%. On to “ACGGAAGTTTACACTG (sugars kkkdddddddddkeke, PS)”, for which, for the setting “MM.1R, 1 µM”, the target mRNA inhibition was 13%. On to GAGCAGAACGAGGTAA (sugars k3 d10 k3, PS), for which, where the note is “SK-MEL-28, 4 µM”, the target mRNA inhibition came out at 55%. Take AAATCTTCAACAGCAC (sugars k3 d10 k3, PS): the target mRNA inhibition (SK-MEL-28, 4 µM) stood at 45%. Regarding CTTAGAATGAGAGGTG (sugars k3 d10 k3, PS), the target mRNA inhibition (MM.1R, 1 µM) came to 1%. Consider TTTCATATTTGGAGCC (sugars k3 d10 k3, PS), for which the target mRNA inhibition is -3% and 21% (MM.1R, 0.0625 µM); 10% and 18% (MM.1R, 0.25 µM); 25% and 45% (MM.1R, 1 µM); 45% and 60% (MM.1R, 4 µM); 75% (SK-MEL-28, 4 µM).

With TGCGAAGAATTTTAGC (sugars k3 d10 k3, PS), the target mRNA inhibition (SK-MEL-28, 4 µM) was found to be 41%. Take “GACACTTTTAGAGAGG (sugars e1 k2 d9 k2 e2, PS)”: the target mRNA inhibition (MM.1R, 1 µM) came out at 24%.

As to TTCAGCAGAAAGTGGG (sugars k3 d10 k3, PS), the target mRNA inhibition (SK-MEL-28, 4 µM) came to 48%. As for GTGACTGGAGAGCAAT (sugars k3 d10 k3, PS), the target mRNA inhibition (SK-MEL-28, 4 µM) is 74%. With AACCATTACTTAGACA (sugars k3 d10 k3, PS), the target mRNA inhibition (SK-MEL-28, 4 µM) turned out to be 45%. In the case of ACACACCAGGTTAAAC (sugars k3 d10 k3, PS), where the note is “SK-MEL-28, 4 µM”, the target mRNA inhibition was 12%. As for GCACAGCCGTCCGCCT (sugars k3 d10 k3, PS), under “SK-MEL-28, 4 µM”, the target mRNA inhibition is 16%.

Consider AGAACTTGCTAAGTCT (sugars k3 d10 k3, PS), for which the target mRNA inhibition (MM.1R, 1 µM) was -34%. Consider TCCAACAGGCGGACAC (sugars k3 d10 k3, PS), for which the target mRNA inhibition (SK-MEL-28, 4 µM) amounted to 29%. On the same count and under the same terms, then CACGAGGCACCGCACT (sugars k3 d10 k3, PS), with -13%; and AATGAGGAAGCCGTTC (sugars k3 d10 k3, PS), with 47%. In the case of “ACGGAAGTTTACACTG (sugars kkddddddddddkeke, PS)”, the target mRNA inhibition (MM.1R, 1 µM) was 13%. For CTTTTTTGGCTCCCTC (sugars k4 d8 k4, PS), the target mRNA inhibition was -3% (MM.1R, 0.074 µM); -3% (MM.1R, 0.222 µM); 9% (MM.1R, 0.666 µM); 25% (MM.1R, 2 µM); 4% and 9% and 8% (SK-MEL-28, 0.185 µM); 46% (SK-MEL-28, 4 µM). In addition, the target mRNA inhibition (SK-MEL-28, 5 µM) was 45% and 42% and 62%; the target mRNA inhibition (SK-MEL-28, 15 µM) was 63% and 68% and 81%. For the sequence TGCTACTGCGGACATC (sugars k3 d10 k3, PS), the target mRNA inhibition (SK-MEL-28, 4 µM) came to 43%. With TAACTGGCTTCCAGGA (sugars k3 d10 k3, PS), the target mRNA inhibition (SK-MEL-28, 4 µM) came to 30%.

In the case of TCCATATGACCCAGTG (sugars k3 d10 k3, PS), the target mRNA inhibition (SK-MEL-28, 4 µM) is 66%.

With ACAGTAAGAGGGCAGT (sugars k3 d10 k3, PS), the target mRNA inhibition (SK-MEL-28, 4 µM) is 84%.

For the origin of these results see the OligoGym collection.
